Values quoted from earlier work as cited in patent publication US20260071096A1, “BONDED ABRASIVE ARTICLES AND METHODS OF MANUFACTURE” (3M INNOVATIVE PROPERTIES COMPANY, priority 2020, published 2026).

Details: species and route not given

In the case of c1ccc2ccccc2c1 [Naphthalene, naphthalene], the “LD50 (mean lethal dose)” value is listed as 490 mg/kg.
